Assay results reported in patent US20230190677A1, “PHARMACEUTICAL COMPOSITION FOR PREVENTING OR TREATING AGING-RELATED DISEASES” (INDUSTRY ACADEMIC COOPERATION FOUNDATION CHOSUN UNIVERSITY, priority 2021, published 2023).

Key:
AMPK [1] = experiment: Immunoblotting of AMPK activation, oxidative stress-induced senescence; format: cell-based, human
Method: (§1) H2O2 was used to induce oxidative stress-induced cell cycle arrest and senescence. Briefly, the cells were exposed to 200 μM H2O2 for 2 h and cultured for 2 d without H2O2. In the second treatment with H2O2, the cells were split 1:3, exposed to 200 μM H2O2 for 2 h, and cultured with either normal media (control), Lico D (1 μg/mL), ascorbic acid (500 μM AA; a positive control), or the compound C (0.5 μM; AMPK inhibitor) for 72 h. Cellular senescence was confirmed by SA-β-gal assay and Western blotting as described below.
(§2) Total proteins were extracted with RIPA (radioimmunoprecipitation) lysis buffer system containing phenylmethylsulfonyl fluoride (PMSF), sodium orthovanadate (Na3VO4), and protease inhibitor cocktail (Santa Cruz Biotechnology) at 4° C. for 30 min, and the samples were centrifuged (spun down) at 16,000×g for 20 min. The total protein concentration was quantified using the Pierce BCA Protein Assay Kit (Thermo Fisher Scientific). Proteins (30-50 μg) were loaded and separated via sodium dodecyl sulphate-polyacrylamide gel electrophoresis (SDS-PAGE) gel electrophoresis, followed by blotting on a PVDF membrane (GE Healthcare, Germany). The membranes were blocked with 1% blocking solution containing non-fat dry milk in TBST for 1 h 30 min at RT to prevent non-specific binding of primary antibodies. […]

LC3, BECN1, SQSTM1 = experiment: Immunoblotting of autophagy markers, oxidative stress-induced senescence; format: cell-based, human
Method: as §1
(§3) Total proteins were extracted with RIPA (radioimmunoprecipitation) lysis buffer system containing phenylmethylsulfonyl fluoride (PMSF), sodium orthovanadate (Na3VO4), and protease inhibitor cocktail (Santa Cruz Biotechnology) at 4° C. for 30 min, and the samples were centrifuged (spun down) at 16,000×g for 20 min. The total protein concentration was quantified using the Pierce BCA Protein Assay Kit (Thermo Fisher Scientific). Proteins (30-50 μg) were loaded and separated via sodium dodecyl sulphate-polyacrylamide gel electrophoresis (SDS-PAGE) gel electrophoresis, followed by blotting on a PVDF membrane (GE Healthcare, Germany). The membranes were blocked with 1% blocking solution containing non-fat dry milk in TBST for 1 h 30 min at RT to prevent non-specific binding of primary antibodies. Subsequently, the membranes were incubated overnight at 4° C. with the corresponding primary antibodies. Secondary antibodies were conjugated with horseradish peroxidase and visualized using an enhanced chemiluminescence detection kit (GE Healthcare). Densitometry analysis was performed using the ImageJ software.

hBM-MSCs [2] = experiment: MTT cell viability assay (cytotoxic effect); format: cell-based, human; settings: Lico D 0-8 μg/mL for 12 h, MTT (FIG. 1A)
Method: (§4) Human bone marrow derived mesenchymal stem cells (hBM-MSCs) were acquired from Cell Engineering for Origin (CEFO), Seoul, Korea. The cells were free from bacterial, viral, and mycoplasmal contamination. […] The cells were grown in Dulbecco's modified Eagle medium (DMEM) (Gibco, Life Technologies, Grand Island, N.Y., USA) supplemented with 10% FBS (Gibco, Life Technologies, USA), L-glutamine, and 1% penicillin/streptomycin solution (Lonza, Walkersville, Md., USA). The cells were manipulated under sterile conditions in a humidified incubator at 37° C. with 5% CO2 and 95% air. The cells were subcultured as soon as they reached confluence. The cells were serially monitored under bright field microscopy (Nikon Eclipse TS100; Tokyo, Japan), and the media was changed every 3 d.
(§5) The cytotoxic and protective effects of Lico D in hBM-MSCs were determined using the methylthiazolyldiphenyl-tetrazolium bromide (MTT) test, according to the manufacturer's instructions. To check the cytotoxic effect, hBM-MSCs were grown in a 96-well plate at a density of 8×10^3 cells per well. […] Cell viability was assessed using a spectrophotometer (Multiskan FC, Thermo Fisher Scientific). […] Following H2O2 treatment, cells were treated with MTT solution for 2 h, and cell viability was evaluated.

hBM-MSCs [3] = experiment: MTT cell viability assay (protective effect against H2O2); format: cell-based, human; settings: hBM-MSCs pre-treated with 1 μg/mL for 12 h, then H2O2 0-1 mM for 1 h (FIG. 1B)
Method: as §4, §5

hBM-MSCs [4] = experiment: Detection of intracellular ROS (DCFH-DA); format: cell-based, human; settings: hBM-MSCs pretreated 1 μg/mL 12 h, H2O2 0.7 mM 1 h, vs H2O2 alone (FIGS. 1C, 1D)
Method: (§6) To quantify the production of intracellular ROS, we used cell permeable substrate 2′,7′-dichlorofluorescin diacetate (DCFH-DA), which can be converted to highly detectable fluorescent 2′,7′-dichlorofluorescein upon oxidation. The cells were cultured in 12-well plates and 96-well plates for 24 h. After 24 h of culture, the cells were treated with 1 μg/mL of Lico D for 12 h and incubated with 20 μM DCFH-DA for 30 min. The cells were then washed with a phosphate-buffered saline (PBS) solution and incubated with H2O2 (0.7 mM) for 1 h at 37° C. The cells were then fixed with 4% paraformaldehyde at room temperature (RT) for 15 min and the nuclei were stained with Hoechst. Then, the cells were observed under a fluorescent microscope (Nikon Eclipse Ti2; Japan), and the images were captured (Nikon DS-Ri2; Japan) and analyzed using the Image J software. To analyze the apoptotic markers, the cells were pretreated with 1 μg/mL of Lico D followed by incubation with H2O2 (0.7 mM) for 1 h at 37° C., and then the proteins were isolated as described below.

[5] = test system: p53 and cleaved caspase 3; experiment: Immunoblotting of apoptotic markers after H2O2; format: cell-based, human; settings: hBM-MSCs pretreated 1 μg/mL, H2O2 0.7 mM 1 h, vs H2O2 alone (FIG. 1E)
Method: as §6, with “To analyze the apoptotic markers, the cells were pretreated with 1 μg/mL of Lico D followed by incubation with H2O2 (0.7 mM) for 1 h at 37° C., and then the proteins were isolated as described below.” left out
Total proteins were extracted with RIPA (radioimmunoprecipitation) lysis buffer system containing phenylmethylsulfonyl fluoride (PMSF), sodium orthovanadate (Na3VO4), and protease inhibitor cocktail (Santa Cruz Biotechnology) at 4° C. for 30 min, and the samples were centrifuged (spun down) at 16,000×g for 20 min. The total protein concentration was quantified using the Pierce BCA Protein Assay Kit (Thermo Fisher Scientific). […]

hBM-MSCs [6] = experiment: Senescence-associated β-galactosidase (SA-β-gal) staining, oxidative stress-induced senescence; format: cell-based, human; settings: double time 200 μM H2O2 treated hBM-MSCs (40% without treatment); Lico D 1 μg/mL or ascorbic acid 500 μM for 72 h (FIG. 2C)
Method: as §1
Senescence-associated β-galactosidase positive cells were identified using an SA-β-gal assay kit (Cell Signaling Technology, Danvers, Mass., USA) according to the manufacturer's instructions. Briefly, after 72 h of treatment, cells were washed with phosphate-buffered saline (PBS) and fixed with 1× fixative for 10-15 min at room temperature. The β-galactosidase staining solution (pH 6.0) was added to the plates and incubated overnight in a dry incubator at 37° C. without CO2. The next day, the β-Gal positive cells were observed under a light microscope (Nikon Eclipse TS100; Tokyo, Japan) and captured using a Canon i-Solution IMTcam3 digital camera (Tokyo, Japan).

p53, p16, and p21 = experiment: Immunoblotting of senescence markers, oxidative stress-induced senescence; format: cell-based, human; settings: double time H2O2 treated hBM-MSCs, Lico D 1 μg/mL 72 h (FIGS. 3A-3D)
Method: as §1, §2

[7] = Body weight in D-Gal induced aging mice; format: in vivo, C57BL/6 mice; settings: D-Gal 150 mg/kg/day i.p. 10 weeks, Lico D 0.5 mg/kg/day i.p. 8 weeks, measured weekly (FIG. 5B)
Method: (§7) Six-week-old male C57BL/6 mice (weighing 22±2 g) were purchased from Samtako Bio Korea Co., Ltd. (Osan, Gyeonggi, Korea) and maintained at 23-25° C. under a 12-h light and 12-h dark cycle with free access to food and water in a pathogen-free facility. All animal experiments were approved by the Institutional Animal Care and Use Committee of Chosun University (CIACUC2020-S0009). After a week of acclimation, the animals were randomly divided into three groups (four mice per group): normal control group (PBS alone), D-Galactose model group (150 mg/kg/day), and D-Galactose +Lico D (0.5 mg/kg/day). The mice were intraperitoneally injected with either PBS or D-Gal for 10 weeks and from the third week onwards, the mice were intraperitoneally injected with Lico D for 8 weeks (FIG. 5A). Body weight was measured every week until the end of the experiment. Thereafter, the MWM (Morris water maze) test was performed for one week.

RAGE = experiment: qRT-PCR of RAGE in D-Gal induced aging mice; format: in vivo, C57BL/6 mice; settings: hippocampus, Lico D 0.5 mg/kg/day i.p. vs D-Gal treated mice (FIG. 5C)
Method: as §7
RNAisoPlus (Takara) was used to isolate total RNA from the hippocampus and heart tissues. Total RNA (2.5 μg) was then reverse-transcribed using PrimescriptTM II 1st strand cDNA synthesis kit (Takara) and quantified using the Power SYBR Green PCR Master mix (Applied BioSystems). To amplify β-actin and RAGE, the mouse primers in Table 1 below were used. […]

D-Gal induced aging mice = experiment: Morris water maze (MWM) test in D-Gal induced aging mice; format: in vivo, C57BL/6 mice
Method: as §7

p53 and p21 = experiment: Immunoblotting of senescence markers in heart and hippocampus tissues of D-Gal induced aging mice; format: in vivo, C57BL/6 mice
Method: as §3, with “Densitometry analysis was performed using the ImageJ software.” left out
(§8) Six-week-old male C57BL/6 mice (weighing 22±2 g) were purchased from Samtako Bio Korea Co., Ltd. (Osan, Gyeonggi, Korea) and maintained at 23-25° C. under a 12-h light and 12-h dark cycle with free access to food and water in a pathogen-free facility. […] Body weight was measured every week until the end of the experiment. […]

AMPK [8] = experiment: Immunoblotting of AMPK activation in heart and hippocampus tissues of D-Gal induced aging mice; format: in vivo, C57BL/6 mice
Method: as §3, with “Densitometry analysis was performed using the ImageJ software.” left out
as §8

LC3 II, BECN1 and SQSTM1 = experiment: Immunoblotting of autophagy markers in heart tissue of D-Gal induced aging mice; format: in vivo, C57BL/6 mice; settings: Lico D 0.5 mg/kg/day i.p. vs D-Gal-treated mice (FIGS. 8A-8D)
Method: as §3, with “Densitometry analysis was performed using the ImageJ software.” left out
as §8

[9] = test system: human melanoma, oral squamous cell carcinoma and lung adenocarcinoma; settings: previously reported; cited from earlier work
[10] = oxidative stress-induced senescent hBM-MSCs, Lico D 1 μg/mL (FIGS. 4A-4D)

## c1cc(-c2cnn3cc(-c4ccc(OCCN5CCCCC5)cc4)cnc23)ccn1 [CC, reference compound]
AMPK [1]; senescent hBM-MSCs, compound C 0.5 μM with Lico D (FIGS. 3E, 3F)
  Lico D-mediated AMPK activation upon treatment with CC: abolished
LC3, BECN1, SQSTM1; senescent hBM-MSCs, compound C 0.5 μM with Lico D (FIGS. 4A-4D)
  AMPK-mediated autophagy upon treatment with CC: inhibited

## COc1c(/C=C/C(=O)c2ccc(O)c(CC=C(C)C)c2)ccc(O)c1O [Lico D, Licochalcone D]
hBM-MSCs [2]
  cell viability: no significant changes in cell viability
hBM-MSCs [3]
  cell viability under H2O2 oxidative stress: significantly increased
hBM-MSCs [4]
  intracellular ROS levels: significantly reduced
[5]
  expression of apoptotic proteins p53 and cleaved caspase 3: reduced
hBM-MSCs [6]
  number of SA-β-gal-positive cells: 13%
p53, p16, and p21
  expression of senescence markers p53, p16, and p21: reduced
AMPK [1]; oxidative stress-induced senescent hBM-MSCs, Lico D 1 μg/mL 72 h (FIGS. 3E, 3F)
  AMPK activation (pAMPK/AMPK): significantly restored
LC3, BECN1, SQSTM1; [10]
  expression levels of LC3 and BECN1: significantly increased
  expression of SQSTM1: decreased
[7]
  body weight: No significant differences
RAGE
  RAGE expression at the mRNA level: significantly reduced
D-Gal induced aging mice; Lico D 0.5 mg/kg/day i.p. vs D-Gal treated mouse (FIG. 6C)
  number of times of target platform crossing (MWM): tendency of increasing
D-Gal induced aging mice; Lico D 0.5 mg/kg/day i.p. vs D-Gal treated mouse, similar to control (FIG. 6A)
  escape latency (MWM): markedly short time
D-Gal induced aging mice; Lico D 0.5 mg/kg/day i.p. vs D-Gal treated mouse, similar to control (FIG. 6B)
  duration in target quadrant (MWM): significantly longer time
p53 and p21; heart tissue, Lico D 0.5 mg/kg/day i.p. vs D-Gal-injected mice (FIGS. 7A-7C)
  expression levels of p53 and p21, heart: significantly reduced
p53 and p21; hippocampus tissue, Lico D 0.5 mg/kg/day i.p. vs D-Gal-injected mice (FIGS. 7F-7H)
  expression levels of p53 and p21, hippocampus: significantly reduced
AMPK [8]; heart tissue, Lico D 0.5 mg/kg/day i.p. vs D-Gal treatment (FIGS. 7D, 7E)
  AMPK activation, heart: significantly increased
AMPK [8]; hippocampus tissue, Lico D 0.5 mg/kg/day i.p. vs D-Gal treatment (FIGS. 7I, 7J)
  AMPK activation, hippocampus: significantly increased
LC3 II, BECN1 and SQSTM1
  expression of autophagy markers (LC3 II, BECN1 and SQSTM1): markedly increased
[9]
  anticancer activity: anticancer activity in a dose-dependent manner

## O=C1O[C@H]([C@@H](O)CO)C(O)=C1O [ascorbic acid, reference compound]
hBM-MSCs [6]
  number of SA-β-gal-positive cells: 17%
